ChEMBL document CHEMBL5226279, “Mercaptoacetamide: A promising zinc-binding group for the discovery of selective histone deacetylase 6 inhibitors” (Eur J Med Chem, 2021)
pIC50: −log10 of the molar value. ≈ marks a conversion by molar mass, not a printed value.

Columns and labels:
[1] = Solubility of compound in HCl at pH 1.2 at 37 degreeC measured after 24 hrs; type: physicochemical
[2] = Apparent permeability across apical to basolateral side in human Caco-2 cells; type: ADME, cell-based
[3] = Apparent permeability across basolateral to apical side in human Caco-2 cells; type: ADME, cell-based
[4] = AUC in mouse at 400 mg/kg, ip; type: ADME, organism-based; design: dose 400 mg/kg, route ip; details: in vivo
[5] = Half life in mouse at 400 mg/kg, ip; type: ADME, organism-based; details: in vivo
[6] = Stability in mouse plasma assessed as half life; type: ADME, cell-free
[7] = Stability in human liver microsomes assessed as half life; type: ADME, Microsome
[8] = Stability in human plasma assessed as half life; type: ADME, cell-free
[9] = Stability in rat plasma assessed as half life; type: ADME, cell-free
[10] = Clearance in mouse at 400 mg/kg, ip; type: ADME, organism-based; details: in vivo
[11] = Cmax in mouse at 400 mg/kg, ip; type: ADME, organism-based; design: dose 400 mg/kg, route ip; details: in vivo
[12] = Lipophilicity, logD of the compound at 37 degreeC; type: physicochemical; details: octanol/water
[13] = Solubility of compound in PBS at pH 7.4 at 37 degreeC measured after 24 hrs; type: physicochemical
[14] = Stability in rat liver microsomes assessed as half life; type: ADME, Microsome
[15] = Stability in dog liver microsomes assessed as half life; type: ADME, Canis lupus familiaris, Microsome
[16] = Tmax in mouse at 400 mg/kg, ip; type: ADME, organism-based; details: in vivo
[17] = Stability in porcine plasma assessed as half life; type: ADME, cell-free, Sus scrofa; details: pig
[18] = molecular target: T1, Polyamine deacetylase HDAC10 (Homo sapiens, UniProt Q969S8); test: Inhibition of human HDAC10 using FAM-labeled acetylated peptide as substrate incubated for 17 hrs by fluorescence based assay
T1 sequence (Q969S8 whole entry): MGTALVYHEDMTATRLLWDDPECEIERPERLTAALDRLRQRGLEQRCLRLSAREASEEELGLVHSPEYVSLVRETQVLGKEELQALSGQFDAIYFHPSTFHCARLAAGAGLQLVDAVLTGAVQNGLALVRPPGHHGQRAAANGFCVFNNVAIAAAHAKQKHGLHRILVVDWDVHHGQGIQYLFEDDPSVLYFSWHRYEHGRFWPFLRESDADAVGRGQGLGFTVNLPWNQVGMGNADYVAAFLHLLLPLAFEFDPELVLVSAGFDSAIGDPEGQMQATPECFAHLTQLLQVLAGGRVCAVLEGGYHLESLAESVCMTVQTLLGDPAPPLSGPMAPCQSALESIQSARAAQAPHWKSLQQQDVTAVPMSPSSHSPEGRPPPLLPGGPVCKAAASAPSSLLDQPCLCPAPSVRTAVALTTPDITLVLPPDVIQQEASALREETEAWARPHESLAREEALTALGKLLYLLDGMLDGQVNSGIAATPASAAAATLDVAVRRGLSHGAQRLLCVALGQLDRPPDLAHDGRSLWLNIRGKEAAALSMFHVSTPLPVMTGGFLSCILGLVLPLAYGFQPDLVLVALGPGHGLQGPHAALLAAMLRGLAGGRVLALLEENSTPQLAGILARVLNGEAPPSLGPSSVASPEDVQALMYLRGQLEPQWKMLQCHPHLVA

Histone deacetylase 8 = molecular target: T2, Histone deacetylase 8 (Homo sapiens, UniProt Q9BY41); test: Inhibition of human HDAC8 using FAM-labeled acetylated peptide as substrate incubated for 17 hrs by fluorescence based assay
T2 sequence (Q9BY41 whole entry): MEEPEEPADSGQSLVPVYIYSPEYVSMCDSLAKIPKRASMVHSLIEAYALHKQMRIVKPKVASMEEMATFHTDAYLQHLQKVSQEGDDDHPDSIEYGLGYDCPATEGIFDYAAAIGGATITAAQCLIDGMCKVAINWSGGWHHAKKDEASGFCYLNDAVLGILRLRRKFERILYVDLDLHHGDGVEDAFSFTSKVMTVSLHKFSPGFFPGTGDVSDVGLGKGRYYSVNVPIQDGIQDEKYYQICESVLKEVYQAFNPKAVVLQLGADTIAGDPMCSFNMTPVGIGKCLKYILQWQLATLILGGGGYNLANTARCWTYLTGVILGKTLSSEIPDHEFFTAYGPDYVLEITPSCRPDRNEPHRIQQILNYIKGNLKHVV

Histone deacetylase 2 [19] = molecular target: T3, Histone deacetylase 2 (Homo sapiens, UniProt Q92769); test: Inhibition of human HDAC2 using FAM-labeled acetylated peptide as substrate incubated for 17 hrs by fluorescence based assay
T3 sequence (Q92769 whole entry): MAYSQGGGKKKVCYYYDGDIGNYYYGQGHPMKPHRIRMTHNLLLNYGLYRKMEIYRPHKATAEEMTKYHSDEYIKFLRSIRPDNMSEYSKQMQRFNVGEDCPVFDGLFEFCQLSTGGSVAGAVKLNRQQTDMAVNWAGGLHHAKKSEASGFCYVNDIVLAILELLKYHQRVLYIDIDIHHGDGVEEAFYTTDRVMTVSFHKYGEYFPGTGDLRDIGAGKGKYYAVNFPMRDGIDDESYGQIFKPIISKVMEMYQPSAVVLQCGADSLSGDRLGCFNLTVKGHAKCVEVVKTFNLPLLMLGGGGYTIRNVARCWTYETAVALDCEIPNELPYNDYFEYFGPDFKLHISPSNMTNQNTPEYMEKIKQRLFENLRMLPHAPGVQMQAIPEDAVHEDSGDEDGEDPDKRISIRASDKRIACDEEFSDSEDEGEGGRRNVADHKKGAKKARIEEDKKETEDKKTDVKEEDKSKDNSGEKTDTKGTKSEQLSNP

[20] = molecular target: T4, Protein deacetylase HDAC6 (Homo sapiens, UniProt Q9UBN7); test: Inhibition of human HDAC6 using FAM-labeled acetylated peptide as substrate incubated for 17 hrs by fluorescence based assay
T4 sequence (Q9UBN7 whole entry): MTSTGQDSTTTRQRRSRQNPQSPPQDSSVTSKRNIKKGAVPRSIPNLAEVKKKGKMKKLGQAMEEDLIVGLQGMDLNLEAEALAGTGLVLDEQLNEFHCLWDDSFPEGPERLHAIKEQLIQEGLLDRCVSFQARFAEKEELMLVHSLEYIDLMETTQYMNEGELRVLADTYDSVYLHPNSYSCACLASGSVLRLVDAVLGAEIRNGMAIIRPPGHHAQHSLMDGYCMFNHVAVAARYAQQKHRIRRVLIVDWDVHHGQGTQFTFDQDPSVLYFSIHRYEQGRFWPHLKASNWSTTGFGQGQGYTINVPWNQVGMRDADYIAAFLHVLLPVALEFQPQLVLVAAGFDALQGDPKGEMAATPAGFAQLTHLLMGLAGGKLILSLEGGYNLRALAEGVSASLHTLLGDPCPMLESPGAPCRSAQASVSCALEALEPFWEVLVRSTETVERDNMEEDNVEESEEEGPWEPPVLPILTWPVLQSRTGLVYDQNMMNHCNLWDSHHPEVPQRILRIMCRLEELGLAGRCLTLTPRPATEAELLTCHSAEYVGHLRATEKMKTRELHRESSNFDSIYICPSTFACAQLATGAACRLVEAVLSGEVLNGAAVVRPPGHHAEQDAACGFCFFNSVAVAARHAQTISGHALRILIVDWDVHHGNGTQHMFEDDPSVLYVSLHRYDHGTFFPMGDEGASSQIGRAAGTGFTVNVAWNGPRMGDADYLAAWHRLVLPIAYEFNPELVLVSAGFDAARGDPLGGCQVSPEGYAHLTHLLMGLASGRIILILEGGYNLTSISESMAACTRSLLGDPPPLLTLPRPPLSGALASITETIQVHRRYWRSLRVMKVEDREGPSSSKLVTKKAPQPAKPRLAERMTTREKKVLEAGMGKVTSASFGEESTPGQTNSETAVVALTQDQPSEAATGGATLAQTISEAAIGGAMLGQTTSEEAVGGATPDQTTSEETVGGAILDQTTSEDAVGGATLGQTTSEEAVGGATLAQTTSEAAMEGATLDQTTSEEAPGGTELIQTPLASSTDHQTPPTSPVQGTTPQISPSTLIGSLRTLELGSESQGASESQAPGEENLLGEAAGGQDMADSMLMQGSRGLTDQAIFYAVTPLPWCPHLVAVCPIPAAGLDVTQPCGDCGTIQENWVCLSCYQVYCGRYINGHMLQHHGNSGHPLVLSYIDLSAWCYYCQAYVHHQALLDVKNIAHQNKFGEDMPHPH

Histone deacetylase 1 [21] = molecular target: T5, Histone deacetylase 1 (Homo sapiens, UniProt Q13547); test: Inhibition of human HDAC1 using FAM-labeled acetylated peptide as substrate incubated for 17 hrs by fluorescence based assay
T5 sequence (Q13547 whole entry): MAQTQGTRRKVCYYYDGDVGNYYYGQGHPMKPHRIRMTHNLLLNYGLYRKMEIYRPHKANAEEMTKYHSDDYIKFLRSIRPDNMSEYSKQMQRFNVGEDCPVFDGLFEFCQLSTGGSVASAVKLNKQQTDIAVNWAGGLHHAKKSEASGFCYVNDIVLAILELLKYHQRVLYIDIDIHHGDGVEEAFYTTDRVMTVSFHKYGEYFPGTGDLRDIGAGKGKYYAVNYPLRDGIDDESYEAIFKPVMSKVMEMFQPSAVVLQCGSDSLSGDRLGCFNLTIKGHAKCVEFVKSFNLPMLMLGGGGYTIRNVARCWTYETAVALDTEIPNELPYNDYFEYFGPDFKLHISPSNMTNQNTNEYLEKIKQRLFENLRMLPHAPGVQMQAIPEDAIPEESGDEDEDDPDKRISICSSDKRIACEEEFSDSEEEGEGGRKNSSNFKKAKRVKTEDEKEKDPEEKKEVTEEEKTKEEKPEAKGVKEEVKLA

Histone deacetylase 1 [22] = molecular target: T5, Histone deacetylase 1; test: Inhibition of human HDAC1
Histone deacetylase 1 [23] = molecular target: T5, Histone deacetylase 1; test: Inhibition of human full length recombinant HDAC1 expressed in baculovirus infected Sf9 cells using RHKKAc as substrate preincubated for 5 to 10 mins followed by substrate addition and measured after 2 hrs by fluorescence based analysis
[24] = molecular target: T4, Protein deacetylase HDAC6; test: Inhibition of human full length recombinant HDAC6 expressed in baculovirus infected Sf9 cells using RHKKAc as substrate preincubated for 5 to 10 mins followed by substrate addition and measured after 2 hrs by fluorescence based analysis
Histone deacetylase 2 [25] = molecular target: T3, Histone deacetylase 2; test: Inhibition of human full length recombinant HDAC2 expressed in baculovirus infected Sf9 cells using RHKKAc as substrate preincubated for 5 to 10 mins followed by substrate addition and measured after 2 hrs by fluorescence based analysis
Histone deacetylase = test: Inhibition of HDAC (unknown origin); type: protein assay, Homo sapiens
Histone deacetylase 4 = Histone deacetylase 4 (Homo sapiens, UniProt P56524); test: Inhibition of HDAC4 (unknown origin)
Histone deacetylase 4, sequence (P56524 whole entry): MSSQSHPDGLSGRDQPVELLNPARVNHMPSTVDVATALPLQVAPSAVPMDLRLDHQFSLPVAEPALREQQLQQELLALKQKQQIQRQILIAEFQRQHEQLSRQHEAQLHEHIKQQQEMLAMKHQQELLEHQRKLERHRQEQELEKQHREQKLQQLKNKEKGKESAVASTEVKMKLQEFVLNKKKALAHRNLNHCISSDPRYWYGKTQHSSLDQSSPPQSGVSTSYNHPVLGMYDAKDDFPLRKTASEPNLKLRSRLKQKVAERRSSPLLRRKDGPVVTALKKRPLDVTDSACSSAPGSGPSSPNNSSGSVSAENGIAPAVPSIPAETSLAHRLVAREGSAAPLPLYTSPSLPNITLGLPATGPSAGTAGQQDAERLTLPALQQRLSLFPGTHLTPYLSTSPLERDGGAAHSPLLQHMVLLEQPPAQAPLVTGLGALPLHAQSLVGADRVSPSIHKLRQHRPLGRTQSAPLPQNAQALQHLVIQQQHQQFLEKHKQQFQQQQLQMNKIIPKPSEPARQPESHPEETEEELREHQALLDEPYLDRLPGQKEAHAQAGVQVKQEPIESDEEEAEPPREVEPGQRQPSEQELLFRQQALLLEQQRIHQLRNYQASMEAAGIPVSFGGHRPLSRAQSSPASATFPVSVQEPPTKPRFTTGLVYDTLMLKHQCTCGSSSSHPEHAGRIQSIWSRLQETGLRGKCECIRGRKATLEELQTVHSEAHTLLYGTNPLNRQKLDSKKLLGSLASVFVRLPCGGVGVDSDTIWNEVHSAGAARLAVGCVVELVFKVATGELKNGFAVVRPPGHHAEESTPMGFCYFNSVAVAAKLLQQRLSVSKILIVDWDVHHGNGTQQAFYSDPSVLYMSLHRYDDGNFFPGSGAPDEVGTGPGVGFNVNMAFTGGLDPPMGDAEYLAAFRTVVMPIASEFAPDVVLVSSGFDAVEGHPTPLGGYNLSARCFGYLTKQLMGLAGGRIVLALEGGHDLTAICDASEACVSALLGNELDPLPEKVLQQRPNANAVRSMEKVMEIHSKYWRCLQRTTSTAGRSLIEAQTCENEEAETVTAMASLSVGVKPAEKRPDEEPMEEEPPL

[26] = molecular target: T1, Polyamine deacetylase HDAC10; test: Inhibition of HDAC10 (unknown origin)

SMILES | pIC50 (Histone deacetylase 1 [23]) | pIC50 [24] | pIC50 (Histone deacetylase 2 [25]) | also measured
CN(C)c1ccc(C(=O)NCCCCCNC(=O)CS)cc1 |  |  |  | solubility at 24 h [1]: 1000 µg/mL (≈ 3090 µM); Papp A→B [2]: 7.33 ×10⁻⁶ cm/s; Papp B→A [3]: 10 ×10⁻⁶ cm/s; AUC [4]: 4.23 µM·h; half-life [5]: 1.98 h; half-life [6]: 2.88 h; half-life [7]: 1.13 h; half-life [8]: 1.28 h; half-life [9]: 1.65 h; CL/F [10]: 81.2 mL/min; Cmax [11]: 1540 nM; logD [12]: 2.19; solubility at 24 h [13]: 120 µg/mL (≈ 371 µM); half-life [14]: 1.17 h; half-life [15]: 0.717 h; Tmax [16]: 0.5 h; half-life [17]: 1.48 h
N[C@@H](Cc1ccccc1)C(=O)Nc1ccccc1-c1ccc(NC(=O)CCCCCNC(=O)CS)cc1 |  |  |  | pIC50 [18]: 5.14; pIC50 (Histone deacetylase 8): 5.28; pIC50 (Histone deacetylase 2 [19]): < 4.52; pIC50 [20]: 6.35; pIC50 (Histone deacetylase 1 [21]): 5.56
NCC(=O)Nc1ccccc1-c1ccc(NC(=O)CCCCCNC(=O)CS)cc1 |  |  |  | pIC50 [18]: 5.13; pIC50 (Histone deacetylase 8): 5.22; pIC50 (Histone deacetylase 2 [19]): 4.80; pIC50 [20]: 6.41; pIC50 (Histone deacetylase 1 [21]): 5.40
O=C(CS)NCCCCCn1ccc2cc(Cl)c(Cl)cc21 |  |  |  | pIC50 (Histone deacetylase 1 [22]): 5.10
Cc1onc(-c2ccccc2)c1/C=C/CCCCCNC(=O)CS | 4.55 | 5.46 |  | 
Cc1onc(-c2ccccc2)c1C(=O)NCCCCCNC(=O)C(C)(C)S | < 4.52 | < 4.52 | < 4.52 | 
Cc1onc(-c2ccccc2)c1/C=C\CCCCCNC(=O)CS | < 4.52 | 5.32 |  | 
Cc1onc(-c2ccccc2)c1C(=O)NCCCCCNC(=O)[C@H](C)S | < 4.52 | < 4.52 | < 4.52 | 
Cc1noc(-c2ccccc2)c1C#CCCCCNC(=O)C(C)(C)S | < 4.52 | < 4.52 | < 4.52 | 
Cc1onc(-c2ccccc2)c1/C=C/c1ccc(CNC(=O)C(C)(C)S)cc1 | < 4.52 | < 4.52 | < 4.52 | 
Cc1onc(-c2ccccc2)c1COCCCCCNC(=O)[C@@H](C)S | 5.82 | 6.08 |  | 
Cc1onc(-c2ccccc2)c1COCCCCCNC(=O)[C@H](C)S | < 4.52 | < 4.52 |  | 
Cc1noc(-c2ccccc2)c1C#CCCCCCNC(=O)C(C)(C)S | < 4.52 | < 4.52 | < 4.52 | 
Cc1onc(-c2ccccc2)c1C=CCCCCCNC(=O)C(C)(C)S (mixture of isomers) | < 4.52 | < 4.52 | < 4.52 | 
Cc1onc(-c2ccccc2)c1C=CCCCCCNC(=O)C(C)S (mixture of isomers) | < 4.52 | 5.01 | < 4.52 | 
Cc1onc(-c2ccccc2)c1C=CCCCCCNC(=O)CS (mixture of isomers) | < 4.52 | 5.57 | < 4.52 | 
CC(C)C(NC(=O)CCNC(=O)CS)C(=O)Nc1cnc2ccccc2c1 (racemic) |  |  |  | IC50 (Histone deacetylase): 25.1 µM
Cc1noc(-c2cccc(F)c2)c1C#CCCCCCNC(=O)C(C)S (racemic) | 5.43 | 5.59 | 5.03 | 
Cc1onc(-c2ccccc2)c1C(=O)NCCCCCNC(=O)C(C)S (racemic) | < 4.52 | 5.96 | < 4.52 | 
Cc1onc(-c2ccccc2)c1/C=C/c1ccc(CNC(=O)C(C)S)cc1 (racemic) | < 4.52 | < 4.52 | < 4.52 | 
Cc1noc(-c2ccccc2)c1C#CCCCCCNC(=O)C(C)S (racemic) | 5.57 | 5.70 | 5.12 | 
CC(C)C(NC(=O)CCCNC(=O)CS)C(=O)Nc1cnc2ccccc2c1 (racemic) |  |  |  | IC50 (Histone deacetylase): 3.02 µM
Cc1onc(-c2ccccc2)c1COCCCCCNC(=O)C(C)S (racemic) | 5.02 | 6.07 | 4.85 | 
O=C(/C=C/c1cccc(S(=O)(=O)Nc2ccccc2)c1)NO [BELINOSTAT] |  |  |  | pIC50 (Histone deacetylase 4): 5.91; pIC50 [26]: 7.51
O=C(CCCCCCC(=O)Nc1ccccc1)NO [VORINOSTAT] |  |  |  | Papp A→B [2]: 3 ×10⁻⁶ cm/s; Papp B→A [3]: 6.33 ×10⁻⁶ cm/s
